From patent US20240225915A1, “COMPOSITIONS FOR FIGHTING MALODORS” (SYMRISE AG, priority 2021, published 2024)

Assay: Evaluation of malodor neutralization: sniffer box evaluation by 12 expert panelists
Details: arithmetic mean of panelist ratings; line scale from no odor (0) to strongest imaginable (10), moderate (5) = unperfumed malodor reference; 1 g water added to each sample
Procedure: The object of the following experiments has been the evaluation of performance against feminine hygiene malodor out of sniffer boxes. For this purpose 12 expert panelists evaluated the samples from sniffer boxes. The malodor was placed on different cotton balls and put into an aroma-tight air bag with a volume of […] together with the raw materials placed in a petri dish. Perfume- and malodor intensities were evaluated on a continuous line scale with ten labels ranging from “no odor” (0) to “strongest imaginable” (10) odor with “moderate” (5) being the unperfumed malodor reference sample. Note that panelists only see the verbal anchors not the numbers (0-10) while rating. Results are arithmetic means of the individual panelist's ratings. Subsequently, the data obtained from the olfactory tests were evaluated statistically by a Friedmann-Test for overall difference between the samples followed by a pairwise comparison to identify significant differences among individual samples.
For `CC1CCC(C(C)C)C(OC(=O)C(C)O)C1` (stereo not drawn) [C3, menthyl lactate], the “Malodor (malodor intensity)” value was 4.3.
With `CC1CCC(C(C)C)C2(C1)OCC(CO)O2` (stereo not drawn) [C4, menthone glycerin acetal] the “Malodor (malodor intensity)” value was 4.4.
With `CC(=O)OC1CC(C)CCC1C(C)C` (stereo not drawn) [c2, menthyl acetate] the “Malodor (malodor intensity)” value was 4.4.
